One may read the EC50 as the concentration that produces a half-maximal response.

The text below walks through data of US6908935B2, “Calcium receptor modulating agents” (Amgen Inc., priority 2002, dated 2005).

This assay deals with T1, human parathyroid cell Ca^2+ receptor (hPCaR) (Homo sapiens, UniProt P41180).
T1 construct: expressed in transfected cells
T1 sequence (P41180 20-1078): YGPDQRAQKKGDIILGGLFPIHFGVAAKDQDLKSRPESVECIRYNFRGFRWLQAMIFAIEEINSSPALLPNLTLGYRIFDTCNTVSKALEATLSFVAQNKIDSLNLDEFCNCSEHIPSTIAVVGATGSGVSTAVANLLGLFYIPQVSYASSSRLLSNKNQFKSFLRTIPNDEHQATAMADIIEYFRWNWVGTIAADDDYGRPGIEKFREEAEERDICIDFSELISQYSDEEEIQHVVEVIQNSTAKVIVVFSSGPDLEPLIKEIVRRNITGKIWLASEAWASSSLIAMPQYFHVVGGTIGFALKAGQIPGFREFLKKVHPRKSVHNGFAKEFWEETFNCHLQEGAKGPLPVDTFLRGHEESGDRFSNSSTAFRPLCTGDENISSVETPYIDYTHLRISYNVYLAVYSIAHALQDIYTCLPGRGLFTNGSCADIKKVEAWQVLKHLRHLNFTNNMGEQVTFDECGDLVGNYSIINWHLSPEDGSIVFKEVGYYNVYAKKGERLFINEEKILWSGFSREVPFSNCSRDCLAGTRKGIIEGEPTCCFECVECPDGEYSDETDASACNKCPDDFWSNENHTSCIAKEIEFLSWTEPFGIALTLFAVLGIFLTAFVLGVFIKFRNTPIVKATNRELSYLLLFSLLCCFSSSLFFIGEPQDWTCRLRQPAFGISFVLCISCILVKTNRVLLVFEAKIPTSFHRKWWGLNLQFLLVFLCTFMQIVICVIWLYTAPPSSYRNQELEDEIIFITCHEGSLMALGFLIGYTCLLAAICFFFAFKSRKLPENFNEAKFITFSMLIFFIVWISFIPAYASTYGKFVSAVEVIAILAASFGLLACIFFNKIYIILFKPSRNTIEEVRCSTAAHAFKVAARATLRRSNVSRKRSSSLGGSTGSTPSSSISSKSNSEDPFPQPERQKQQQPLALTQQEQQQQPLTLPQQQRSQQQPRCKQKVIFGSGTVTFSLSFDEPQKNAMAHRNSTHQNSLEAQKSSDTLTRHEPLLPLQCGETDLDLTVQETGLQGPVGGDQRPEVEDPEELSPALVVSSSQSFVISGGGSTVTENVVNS
The assay is described as follows: [Ca2+]i measurement with fluo-3 in HEK 293 4.0-7 cells stably transfected with hPCaR. The class given is cell-based. Conditions: fluo-3 fluorescence (485/530 nm), effect on [Ca^2+]i. The procedure, abridged:
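HEK 293 cells stably expressing human parathyroid Ca2+ receptor (clone 4.0-7), loaded with 2 μM fluo-3 AM for 30 min at 37 °C in parathyroid cell buffer (pH 7.45) with 1 mM CaCl2 and 0.5% BSA. After compound addition, intracellular Ca2+ followed by fluorescence at 485 nm excitation/530 nm emission.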
As to `COc1ccc(CN[C@H](C)c2cccc3ccccc23)cc1-c1ccc(Cl)cc1` [(1R)-N-((4′-chloro-6-(methyloxy)-1,1′-biphenyl-3-yl)methyl)-1-(1-naphthalenyl)ethanamine], the EC50 was at most 10 µM.
`COc1cccc([C@@H](C)NCc2ccc(OC)c(-c3ccc(Cl)cc3)c2)c1` [(1R)-N-((4′-chloro-6-(methyloxy)-1,1′-biphenyl-3-yl)methyl)-1-(3-(methyloxy)phenyl)ethanamine] had an EC50 of at most 10 µM.
For `COc1ccc(CN[C@H](C)c2ccccc2)cc1-c1ccc(Cl)cc1` [(1R)-N-((4′-chloro-6-(methyloxy)-1,1′-biphenyl-3-yl)methyl)-1-phenylethanamine] the value was at most 10 µM; for `COc1cccc([C@@H](C)NCc2cccc(-c3ccc(F)cc3)c2)c1` [(1R)-N-((4′-fluoro-1,1′-biphenyl-3-yl)methyl)-1-(3-(methyloxy)phenyl)ethanamine], at most 10 µM.
The figure for `Cc1ccc([C@@H](C)NCc2cccc(-c3ccc(F)cc3)c2)cc1` [(1R)-N-((4′-fluoro-1,1′-biphenyl-3-yl)methyl)-1-(4-methylphenyl)ethanamine] is at most 10 µM; for `C[C@@H](NCc1cccc(-c2ccc(F)cc2)c1)c1ccccc1` [(1R)-N-((4′-fluoro-1,1′-biphenyl-3-yl)methyl)-1-phenylethanamine] it is at most 10 µM; for `COc1ccc(CN[C@H](C)c2cccc(F)c2)cc1-c1ccc(F)cc1` [(1R)-N-((4′-fluoro-6-(methyloxy)-1,1′-biphenyl-3-yl)methyl)-1-(3-fluorophenyl)ethanamine] it is at most 10 µM.
In the case of `COc1ccc([C@@H](C)NCc2ccc(OC)c(-c3ccc(F)cc3)c2)cc1` [(1R)-N-((4′-fluoro-6-(methyloxy)-1,1′-biphenyl-3-yl)methyl)-1-(4-(methyloxy)phenyl)ethanamine], the half-maximal effective concentration (EC50) is at most 10 µM.
For `COc1ccc(CN[C@H](C)c2ccc(C)cc2)cc1-c1ccc(F)cc1` [(1R)-N-((4′-fluoro-6-(methyloxy)-1,1′-biphenyl-3-yl)methyl)-1-(4-methylphenyl)ethanamine] the value was at most 10 µM; for `COCCOc1ccc(CN[C@H](C)c2cccc3ccccc23)cc1-c1ccc(C(F)(F)F)cc1` [(1R)-N-((6-((2-(methyloxy)ethyl)oxy)-4′-(trifluoromethyl)-1,1′-biphenyl-3-yl)methyl)-1-(1-naphthalenyl)ethanamine], at most 10 µM.
For `COCCOc1ccc(CN[C@H](C)c2cccc(OC)c2)cc1-c1ccc(C(F)(F)F)cc1` [(1R)-N-((6-((2-(methyloxy)ethyl)oxy)-4′-(trifluoromethyl)-1,1′-biphenyl-3-yl)methyl)-1-(3-(methyloxy)phenyl)ethanamine] the value was at most 10 µM; for `COCCOc1ccc(CN[C@H](C)c2ccccc2)cc1-c1ccc(C(F)(F)F)cc1` [(1R)-N-((6-((2-(methyloxy)ethyl)oxy)-4′-(trifluoromethyl)-1,1′-biphenyl-3-yl)methyl)-1-phenylethanamine], at most 10 µM.
The figure for `CCOc1ccc(CN[C@H](C)c2ccccc2)cc1-c1ccc(OC)cc1` [(1R)-N-((6-(ethyloxy)-4′-(methyloxy)-1,1′-biphenyl-3-yl)methyl)-1-phenylethanamine] is at most 10 µM.
For the compound `COc1cccc([C@@H](C)NCc2ccc(OC)c(-c3ccccc3)c2)c1` [(1R)-N-((6-(methyloxy)-1,1′-biphenyl-3-yl)methyl)-1-(3-(methyloxy)phenyl)ethanamine], the EC50 is at most 10 µM.
`COc1ccc([C@@H](C)NCc2ccc(OC)c(-c3ccccc3)c2)cc1` [(1R)-N-((6-(methyloxy)-1,1′-biphenyl-3-yl)methyl)-1-(4-(methyloxy)phenyl)ethanamine] returned an EC50 of at most 10 µM.
`COc1ccc(CN[C@H](C)c2ccc(C)cc2)cc1-c1ccccc1` [(1R)-N-((6-(methyloxy)-1,1′-biphenyl-3-yl)methyl)-1-(4-methylphenyl)ethanamine] registered an EC50 of at most 10 µM.
The figure for `COc1ccc(CN[C@H](C)c2cccc3ccccc23)cc1-c1cccc(OC(F)(F)F)c1` [(1R)-N-((6-(methyloxy)-3′-((trifluoromethyl)oxy)-1,1′-biphenyl-3-yl)methyl)-1-(1-naphthalenyl)ethanamine] is at most 10 µM.
In turn, `COc1ccc(CN[C@H](C)c2ccccc2)cc1-c1cccc(OC(F)(F)F)c1` [(1R)-N-((6-(methyloxy)-3′-((trifluoromethyl)oxy)-1,1′-biphenyl-3-yl)methyl)-1-phenylethanamine] gave an EC50 of at most 10 µM.
For `COc1ccc(CN[C@H](C)c2cccc3ccccc23)cc1-c1cccc(C(F)(F)F)c1` [(1R)-N-((6-(methyloxy)-3′-(trifluoromethyl)-1,1′-biphenyl-3-yl)methyl)-1-(1-naphthalenyl)ethanamine], the EC50 was at most 10 µM.
In the case of `COc1ccc(CN[C@H](C)c2ccccc2)cc1-c1cccc(C(F)(F)F)c1` [(1R)-N-((6-(methyloxy)-3′-(trifluoromethyl)-1,1′-biphenyl-3-yl)methyl)-1-phenylethanamine], the EC50 was at most 10 µM.
As to `COc1ccc(CN[C@H](C)c2cccc3ccccc23)cc1-c1ccc(OC(F)(F)F)cc1` [(1R)-N-((6-(methyloxy)-4′-((trifluoromethyl)oxy)-1,1′-biphenyl-3-yl)methyl)-1-(1-naphthalenyl)ethanamine], the EC50 was at most 10 µM.
For the compound `COc1ccc(CN[C@H](C)c2ccccc2)cc1-c1ccc(OC(F)(F)F)cc1` [(1R)-N-((6-(methyloxy)-4′-((trifluoromethyl)oxy)-1,1′-biphenyl-3-yl)methyl)-1-phenylethanamine], the EC50 was at most 10 µM.
For `COc1ccc(CN[C@H](C)c2cccc3ccccc23)cc1-c1ccc(S(C)(=O)=O)cc1` [(1R)-N-((6-(methyloxy)-4′-(methylsulfonyl)-1,1′-biphenyl-3-yl)methyl)-1-(1-naphthalenyl)ethanamine] the value was at most 10 µM; for `COc1cccc([C@@H](C)NCc2ccc(OC)c(-c3ccc(S(C)(=O)=O)cc3)c2)c1` [(1R)-N-((6-(methyloxy)-4′-(methylsulfonyl)-1,1′-biphenyl-3-yl)methyl)-1-(3-(methyloxy)phenyl)ethanamine], at most 10 µM.
The compound `COc1ccc(CN[C@H](C)c2ccccc2)cc1-c1ccc(S(C)(=O)=O)cc1` [(1R)-N-((6-(methyloxy)-4′-(methylsulfonyl)-1,1′-biphenyl-3-yl)methyl)-1-phenylethanamine] returned an EC50 of at most 10 µM.
For `COc1ccc(CN[C@H](C)c2cccc3ccccc23)cc1-c1ccc(C(F)(F)F)cc1` [(1R)-N-((6-(methyloxy)-4′-(trifluoromethyl)-1,1′-biphenyl-3-yl)methyl)-1-(1-naphthalenyl)ethanamine] the value was at most 10 µM; for `COc1ccc(CN[C@H](C)c2ccccc2)cc1-c1ccc(C(F)(F)F)cc1` [(1R)-N-((6-(methyloxy)-4′-(trifluoromethyl)-1,1′-biphenyl-3-yl)methyl)-1-phenylethanamine], at most 10 µM; for `C[C@@H](NCc1ccc(Cl)c(-c2ccc(OC(F)(F)F)cc2)c1)c1cccc2ccccc12` [(1R)-N-((6-chloro-4′-((trifluoromethyl)oxy)-1,1′-biphenyl-3-yl)methyl)-1-(1-naphthalenyl)ethanamine], at most 10 µM.
As to `COc1cccc([C@@H](C)NCc2ccc(Cl)c(-c3ccc(OC(F)(F)F)cc3)c2)c1` [(1R)-N-((6-chloro-4′-((trifluoromethyl)oxy)-1,1′-biphenyl-3-yl)methyl)-1-(3-(methyloxy)phenyl)ethanamine], the EC50 is at most 10 µM.
Regarding `C[C@@H](NCc1ccc(Cl)c(-c2ccc(OC(F)(F)F)cc2)c1)c1ccccc1` [(1R)-N-((6-chloro-4′-((trifluoromethyl)oxy)-1,1′-biphenyl-3-yl)methyl)-1-phenylethanamine], the EC50 was at most 10 µM.
`C[C@@H](NCc1ccc(Cl)c(-c2ccc(C(F)(F)F)cc2)c1)c1cccc2ccccc12` [(1R)-N-((6-chloro-4′-(trifluoromethyl)-1,1′-biphenyl-3-yl)methyl)-1-(1-naphthalenyl)ethanamine]: the EC50 was at most 10 µM.
The figure for `C[C@@H](NCc1ccc(Cl)c(-c2ccc(C(F)(F)F)cc2)c1)c1ccccc1` [(1R)-N-((6-chloro-4′-(trifluoromethyl)-1,1′-biphenyl-3-yl)methyl)-1-phenylethanamine] is at most 10 µM.
